Experimental findings from article PMC3510438, “The transmembrane tyrosines Y56, Y91 and Y167 play important roles in determining the affinity and transport rate of the rabbit proton-coupled peptide transporter PepT1” (The International Journal of Biochemistry & Cell Biology, 2009) are described below.

Numbering of substitutions follows the chain as printed. Values joined by “and” are separate entries in the source; they are usually repeats but may differ in a detail not shown here. Equal values may be shown once. Where a SMILES comes first, the peptide text is derived from it.

The target of assay [1] is T1, Y91F-rPepT1 (Oryctolagus cuniculus, UniProt P36836, Y91F).
T1 construct: expressed in transfected cells; host or cells: Xenopus laevis oocytes injected with cRNA
T1 sequence (P36836 1-707 Y91F): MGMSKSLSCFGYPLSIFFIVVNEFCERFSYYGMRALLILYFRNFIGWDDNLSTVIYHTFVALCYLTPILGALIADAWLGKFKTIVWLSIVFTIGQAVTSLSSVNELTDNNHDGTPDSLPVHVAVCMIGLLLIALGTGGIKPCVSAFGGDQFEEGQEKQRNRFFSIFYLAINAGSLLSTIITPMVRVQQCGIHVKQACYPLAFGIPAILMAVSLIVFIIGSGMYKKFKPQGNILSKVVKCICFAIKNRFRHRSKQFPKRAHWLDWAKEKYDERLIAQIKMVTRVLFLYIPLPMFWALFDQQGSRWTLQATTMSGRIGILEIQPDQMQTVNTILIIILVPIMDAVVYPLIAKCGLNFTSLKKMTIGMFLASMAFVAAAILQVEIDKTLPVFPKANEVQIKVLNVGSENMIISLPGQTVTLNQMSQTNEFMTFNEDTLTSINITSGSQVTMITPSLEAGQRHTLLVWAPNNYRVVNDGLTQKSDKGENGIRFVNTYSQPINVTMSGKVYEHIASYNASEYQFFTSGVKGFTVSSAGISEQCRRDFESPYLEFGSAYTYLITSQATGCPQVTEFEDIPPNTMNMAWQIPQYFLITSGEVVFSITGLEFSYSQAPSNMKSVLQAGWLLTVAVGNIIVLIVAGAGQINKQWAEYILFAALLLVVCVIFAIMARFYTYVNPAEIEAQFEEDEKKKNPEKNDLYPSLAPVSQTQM
As to the kind of experiment: Uptake of tracer [3H]-D-Phe-L-Gln into Xenopus oocytes. The class given is cell-based, rabbit. To be noted: corrected for surface expression; versus wild-type. How it is done: (§1) rPepT1 constructs were linearised with XbaI (New England Biolabs, UK) and cRNA generated by in vitro transcription (T7 mMessage mMachine, Ambion, Cambridgeshire, UK). Xenopus laevis oocytes were obtained under MS222 anaesthesia (0.2%, w/v) in accordance with the UK Animals (Scientific Procedures) Act, 1986, and maintained at 18 °C in modified Barth's medium (88 mM NaCl, 1 mM KCl, 0.82 mM MgSO4, 2.4 mM NaHCO3, 0.42 mM CaCl2, 10 mM Hepes, 5 mM sodium pyruvate, 50 μg ml^−1 gentamicin (Fluka, Poole, UK), adjusted to pH 7.6 with 1 M NaOH). Transport measurements were performed at least 72 h after micro-injection of oocytes with 27nl cRNA (1 μg/μl), with medium changed daily.
Uptake of [^3H]-D-Phe-L-Gln (17.4 Ci/mmole, custom synthesised, Cambridge Research Biochemicals, Stockton-on-Tees, UK) was performed as previously described ([Meredith, 2004]). […] After incubation, the oocytes were washed sequentially five times in 1 ml of ice-cold 120 mM NaCl solution, lysed individually with 100 μl 2% (w/v) SDS and liquid scintillation counted. […]
Luminometry assays were performed as described previously ([Panitsas et al., 2006]). […] Luminometer (Turner-Designs 20/20, Promega) readings for at least 15 oocytes per data point were taken immediately.

The target of assay [2] is T2, wild-type rPepT1 (Oryctolagus cuniculus, UniProt P36836).
T2 construct: expressed in transfected cells; host or cells: Xenopus laevis oocytes injected with cRNA
T2 sequence (P36836 1-707): T1 sequence (P36836 1-707 Y91F) with F91Y
As to the kind of experiment: Competition of [3H]-D-Phe-L-Gln uptake into Xenopus oocytes, Ki by method of Deves and Boyd. It is filed as cell-based, rabbit. To be noted: against 0.4 μM [3H]-D-Phe-L-Gln uptake. How it is done: as §1
Uptake of [^3H]-D-Phe-L-Gln (17.4 Ci/mmole, custom synthesised, Cambridge Research Biochemicals, Stockton-on-Tees, UK) was performed as previously described ([Meredith, 2004]). Briefly, 5 oocytes were incubated in 100 μl of uptake medium (95 mM NaCl, 2 mM KCl, 1 mM CaCl2, 0.42 mM MgCl2, 10 mM Tris/Hepes pH 7.4 or Tris/Mes pH 5.5) with tracer (0.4 μM) [^3H]-D-Phe-L-Gln. After incubation, the oocytes were washed sequentially five times in 1 ml of ice-cold 120 mM NaCl solution, lysed individually with 100 μl 2% (w/v) SDS and liquid scintillation counted. As a control non-injected oocytes were also incubated in uptake medium with D-Phe-L-Gln as above.
The affinity of wild-type and mutant rPepT1 transporters were assessed by competition studies with 0.4 μM [^3H]-D-Phe-L-Gln and Gly-L-Gln present in the uptake medium in concentrations from 0 to 2 mM using the protocol above, and the Ki calculated using the method of [Deves and Boyd (1989)].

With [^3H]-D-Phe-L-Gln, the “decrease in the rate of transport per protein molecule” value in assay [1] amounted to 40%.
In the case of `NCC(=O)N[C@@H](CCC(N)=O)C(=O)O` [Gly-L-Gln] (H-Gly-Gln-OH), the Ki in assay [2] (pHout 5.5) is 320 µM and 330 µM; in assay [2] (pHout 7.4), 110 ± 10 µM.
